In assay [1] the test system is Drosophila suzukii antennae. As to the kind of experiment: Coupled GC-EAD of bread dough headspace volatiles on SWD antennae. As to conditions: adult female SWD antennae; adsorbent extract of bread dough; authentic standards 10 ng/μl. As for the experimental part: Adsorbent Sampling from Bread Dough: The bread dough bait consisted of whole-wheat flour (17.25 g), sugar (2 g), dry active bread yeast (0.325 g), apple cider vinegar (1 ml), and water (25 ml) (Cha, D. H., et al., J. Econ. Entomol., 111: 645-652 (2018a)). Headspace volatiles were collected from 10 g bread dough ball placed in a screened specimen cup (130 ml) by using 2.41 closed volatile collection chambers (ARS, Inc., Gainesville, Fla.) with one air inlet adapter (7 mm ID) on the top and an outlet adapter (7 mm ID) on the bottom wall. Clean air from a filtering and delivery system (ARS Inc., Gainesville, Fla.) was pushed into the chamber at 0.7 L/min through the top inlet port, and volatiles from the dough were pushed out through volatile traps (activated charcoal adsorbent filters, ORBO™32-small, Supelco Inc., Bellefonte, Pa.) on the bottom of the chamber. An additional ORBO™ filter was used to ensure that no breakthrough occurred. For each sample of dough (2 dough samples total), adsorbent collections were made over a 2-day period at room temperature using the same volatile trap. Volatiles were eluted with 600 μl methylene chloride every 24 h from the filters of a given dough sample and combined across the total of the collecting days (from 2 dough samples). The combined extract was kept at −20° C. and subjected to as chromatography-electroantennographic detection (GC-EAD) and gas chromatography-mass spectrometry (GC-MS) analyses.
Coupled Gas Chromatographic-Electroantennographic Detection (GC-EAD): Coupled GC-EAD analysis was performed as described previously (Cha, D. H., J. Chem. Ecol., 34: 1180-1189 (2008); Cha, D. H., et al., J. Chem. Ecol., 38: 1419-1431 (2012)) using a Hewlett Packard 5890 Series II gas chromatograph equipped with either a non-polar DB-5 ms capillary column (30 m×0.25 mm ID, 0.25 μm film thickness; Agilent Technologies, Wilmington, Del.) or polar DB-WAXetr capillary column (30 m×0.25 mm ID, 0.25 μm film thickness; Agilent Technologies, Wilmington, Del.) in the splitless mode with 1 min sampling time. The oven temperature was programmed at 40° C. for 5 min, then increased by 15° C./min to 250° C., and held for 5 min. Injector and detector temperatures were set at 250° C. Nitrogen gas was the carrier at a flow of 2 ml/min. The column effluent was split 1:1 in the oven via a “Y” glass splitter (Supelco). One arm of the splitter led to the flame ionization detector (FID) (250° C.) and the other to the heated EAD port (250° C.). Whole head preparations were made of individual flies, age 5-9 day, for GC-EAD analysis (Cha et al. 2012). The head was separated from the body and its antennae positioned between two gold wire electrodes immersed in saline filled (Drosophila ringer solution; 46 mmol NaCl, 182 mmol KCl, 3 mmol CaCl2, and 10 mmol Tris HCl at pH 7.2) micropipettes in an acrylic holder. The antennal holder was placed inside a humidified condenser and maintained at 5° C. The output signal from the antenna was amplified by a customized high input impedance DC amplifier and recorded on an HP 3390A integrator.
Chemical Analysis: GC-MS was carried out with an Agilent 5975MS coupled with a Agilent 6890GC equipped with either a DB-5 ms capillary column (30 m×0.25 mm ID, 0.25 μm film thickness; Agilent Technologies, Wilmington, Del.) or DB-WAXetr capillary column (30 m×0.25 mm ID, 0.25 μm film thickness; Agilent Technologies, Wilmington, Del.). Helium was the carrier gas (1.0 ml/min constant flow). The GC temperature program was the same as used for the GC-EAD analyses. The MS transfer-line was held at 260° C., the MS source at 230° C., and the MS quad at 150° C. Mass spectra were taken in EI mode (at 70 eV) in the range from 40 m/z to 350 m/z with a scanning rate of 4.58 scan/s. GC-MS data were processed with the MDS-Chemstation software (Agilent Technologies). […]

In the next assay the test system is SWD. As to conditions: 1-octen-3-ol released near ripe raspberries; cited from earlier work.

Structures are written as SMILES. Counter-ions that a name gives are not always drawn.

With `CC(=O)OCCC(C)C` [isoamyl acetate], the “GC-EAD activity (antennal response)” value in assay [1] is “active”.
The same measure, in the same setting: the value for `CCCCCO` [1-pentanol] was “active”.
As for `C=CC(O)CCCCC` (stereo not drawn) [1-octen-3-ol, reference compound], the “effect on infestation of ripe raspberries by SWD” value with SWD is on record as “significantly reduced infestation”. In addition, in assay [1], the “GC-EAD activity (antennal response)” value was “active”.
For `CC(C)CCOC=O` [isoamyl formate], the “GC-EAD activity (antennal response)” value in assay [1] is on record as “active”.
The same measure, in the same setting: the value for `CCCCCCO` [1-hexanol] was “active”.
Same read-out and setting: with `CCCCCCCC(=O)OCC` [ethyl octanoate] the entry was “active”.
Still for that read-out and setting: the value for `CC(=O)C(C)O` (stereo not drawn) [acetoin] was “active”; that for `CC(O)C(C)O` (stereo not drawn) [2,3-butanediol] was “active”; that for `CCCCCCCO` [1-heptanol] was “active”.
Turning to `CCCCCOC(C)=O` [pentyl acetate], the “GC-EAD activity (antennal response)” value in assay [1] is recorded as “active”.
Still for that read-out and setting: the value for `CCCCCCCC(C)=O` [2-nonanone] was “active”; that for `CCCCCCCCC=O` [nonanal] was “active”.
Still for that read-out and setting: the value for `OCCc1ccccc1` [2-phenylethanol] was “active”.
With `CCC(C)COC(C)=O` (stereo not drawn) [2-methylbutyl acetate], the “GC-EAD activity (antennal response)” value in assay [1] is recorded as “active”.
